From publication PMC6900491, “The LRRC8 volume‐regulated anion channel inhibitor, DCPIB, inhibits mitochondrial respiration independently of the channel” (Physiological Reports, 2019) come the findings set out here.

The experiment deals with T1, LRRC8A (volume-regulated anion channel, VRAC) (Homo sapiens, UniProt Q8IWT6).
T1 construct: endogenous VRAC in WT HAP-1 and HEK-293 cells (current absent in LRRC8A-KO cells); with at least one other LRRC8 subunit (LRRC8B, C, D or E)
T1 sequence (Q8IWT6 1-810): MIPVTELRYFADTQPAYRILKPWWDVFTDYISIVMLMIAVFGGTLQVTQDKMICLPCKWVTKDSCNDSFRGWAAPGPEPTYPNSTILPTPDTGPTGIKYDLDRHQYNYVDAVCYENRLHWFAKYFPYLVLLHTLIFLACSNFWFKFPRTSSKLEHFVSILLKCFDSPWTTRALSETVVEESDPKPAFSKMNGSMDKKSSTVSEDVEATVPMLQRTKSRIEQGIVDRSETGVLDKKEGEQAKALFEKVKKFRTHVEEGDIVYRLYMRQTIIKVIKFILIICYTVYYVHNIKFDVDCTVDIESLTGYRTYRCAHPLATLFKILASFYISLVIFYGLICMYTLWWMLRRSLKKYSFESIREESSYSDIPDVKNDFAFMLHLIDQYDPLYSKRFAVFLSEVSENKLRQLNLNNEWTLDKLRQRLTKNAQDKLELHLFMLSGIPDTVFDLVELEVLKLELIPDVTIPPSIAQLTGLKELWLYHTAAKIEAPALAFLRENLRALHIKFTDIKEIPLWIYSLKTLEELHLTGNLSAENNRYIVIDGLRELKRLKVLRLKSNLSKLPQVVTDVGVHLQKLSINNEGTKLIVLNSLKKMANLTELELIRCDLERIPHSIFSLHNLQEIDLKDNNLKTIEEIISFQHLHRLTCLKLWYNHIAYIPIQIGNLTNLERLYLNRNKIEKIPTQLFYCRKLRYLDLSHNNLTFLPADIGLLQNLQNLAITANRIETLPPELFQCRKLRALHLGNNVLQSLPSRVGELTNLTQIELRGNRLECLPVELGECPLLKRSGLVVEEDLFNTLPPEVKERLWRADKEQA
As to the kind of experiment: whole-cell patch clamp of swelling-induced anion current, WT vs LRRC8A-KO cells. The format is cell-based. For orientation: In patch-clamp work, channel activity is measured electrically.

On to `CCCCC1(C2CCCC2)Cc2cc(OCCCC(=O)O)c(Cl)c(Cl)c2C1=O` (stereo not shown) [DCPIB, 4‐(2‐butyl‐6,7‐dichloro‐2‐cyclopentylindan‐1‐on‐5‐yl) oxybutyric acid], for which the “whole-cell patch clamp of swelling-induced anion current, WT vs LRRC8A-KO cells” value turned out to be 10 µM.
